Experimental data published in PMC7101422, “N-Phenethyl Substitution in 14-Methoxy-N-methylmorphinan-6-ones Turns Selective µ Opioid Receptor Ligands into Dual µ/δ Opioid Receptor Agonists” (Scientific Reports, 2020).
Where two headings read alike, the source gives them in different places. Marks after values point to notes of the source that are not given here.

Tests used:
mice [1] = experiment: Rotarod assay in mice; type: in vivo; settings: 30 min after s.c. administration, doses equivalent to a 3- to 4-fold the antinociceptive ED50 dose
human µOR [2] = target: T1, human µOR (Homo sapiens, UniProt P35372); experiment: [35S]GTPγS binding assay, CHO-hµOR membranes; type: biochemical; settings: for µOR % stim.: [35S]GTPγS binding, relative to DAMGO
T1 construct: host or cells: CHO cells (CHO-hµOR; CHO-hµOR-p22F for the cAMP assay)

mice [3] = experiment: Radiant heat tail-flick test in mice; type: in vivo; settings: Mus musculus, sc, 0.5 h, s.c., at 30 min (peak effect), n = 5–6 mice per group, read-out: ED50 (95% CL)
human δOR [4] = target: T2, human δOR (Homo sapiens, UniProt P41143); experiment: Forskolin-induced cAMP accumulation assay, CHO-hδOR-p22F cells; type: cell-based; settings: for Emax: read-out: δOR % stim.
T2 construct: host or cells: CHO cells (CHO-hδOR; CHO-hδOR-p22F for the cAMP assay)

human δOR [5] = target: T2, human δOR; experiment: Competition binding assay, CHO-hδOR cell membranes ([3H]Diprenorphine)
human µOR [6] = target: T1, human µOR; experiment: cell-based; type: cell-based; settings: for Emax: read-out: µOR % stim.
human µOR [7] = target: T1, human µOR; experiment: biochemical; type: binding
human δOR [8] = target: T2, human δOR; experiment: [35S]GTPγS binding assay, CHO-hδOR membranes; type: biochemical; settings: for δOR % stim. / fold higher δOR agonist potency vs. N-methyl counterpart: [35S]GTPγS binding; for δOR % stim.: relative to DPDPE; for fold higher δOR agonist potency vs. N-methyl counterpart: vs. 14-OMO (3) and 14-MM (4)
human κOR [9] = target: T3, human κOR (Homo sapiens, UniProt P41145); experiment: [35S]GTPγS binding assay, CHO-hκOR membranes; type: biochemical; settings: for κOR % stim.: [35S]GTPγS binding, relative to U69,593
T3 construct: host or cells: CHO cells (CHO-hκOR)

human κOR [10] = target: T3, human κOR; experiment: biochemical; type: binding
mice [11] = settings: s.c., cited from earlier work; for ED50 (95% CL): tail-flick, at 30 min (peak effect)
mice [12] = settings: hot-plate test, s.c.; cited from earlier work
human κOR [13] = target: T3, human κOR; settings: cited from earlier work
human δOR [14] = target: T2, human δOR; settings: [35S]GTPγS binding; relative to DPDPE; cited from earlier work
human µOR [15] = target: T1, human µOR; settings: cited from earlier work

T1 sequence (P35372 whole entry): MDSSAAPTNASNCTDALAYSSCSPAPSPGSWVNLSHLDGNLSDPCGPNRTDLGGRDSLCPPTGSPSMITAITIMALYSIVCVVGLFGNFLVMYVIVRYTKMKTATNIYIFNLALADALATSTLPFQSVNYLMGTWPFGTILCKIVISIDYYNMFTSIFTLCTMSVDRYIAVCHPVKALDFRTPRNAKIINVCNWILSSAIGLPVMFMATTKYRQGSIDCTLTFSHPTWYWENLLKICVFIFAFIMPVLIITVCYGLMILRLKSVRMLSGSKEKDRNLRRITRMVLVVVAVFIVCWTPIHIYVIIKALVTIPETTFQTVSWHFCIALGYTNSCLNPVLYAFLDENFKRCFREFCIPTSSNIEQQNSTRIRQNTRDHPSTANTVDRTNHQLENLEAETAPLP
T3 sequence (P41145 whole entry): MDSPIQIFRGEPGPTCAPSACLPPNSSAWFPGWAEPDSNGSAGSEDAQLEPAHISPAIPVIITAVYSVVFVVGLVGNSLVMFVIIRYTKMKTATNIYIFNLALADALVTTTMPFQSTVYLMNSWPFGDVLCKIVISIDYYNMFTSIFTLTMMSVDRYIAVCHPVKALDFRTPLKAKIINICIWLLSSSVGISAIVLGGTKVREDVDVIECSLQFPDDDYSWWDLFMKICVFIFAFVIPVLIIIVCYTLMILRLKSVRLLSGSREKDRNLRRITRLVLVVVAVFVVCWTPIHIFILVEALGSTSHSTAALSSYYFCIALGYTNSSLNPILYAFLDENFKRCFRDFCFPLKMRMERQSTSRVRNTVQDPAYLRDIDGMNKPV
T2 sequence (P41143 whole entry): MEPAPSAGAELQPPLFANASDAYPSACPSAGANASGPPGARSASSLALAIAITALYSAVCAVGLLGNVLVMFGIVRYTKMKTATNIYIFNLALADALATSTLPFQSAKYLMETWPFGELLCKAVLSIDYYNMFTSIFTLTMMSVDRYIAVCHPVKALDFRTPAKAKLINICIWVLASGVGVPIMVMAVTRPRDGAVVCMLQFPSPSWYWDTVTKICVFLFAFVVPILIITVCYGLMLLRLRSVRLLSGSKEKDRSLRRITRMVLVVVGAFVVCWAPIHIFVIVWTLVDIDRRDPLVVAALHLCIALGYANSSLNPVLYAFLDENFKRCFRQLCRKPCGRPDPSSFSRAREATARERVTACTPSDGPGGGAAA

SMILES	effect on motor coordination (rotarod performance) (mice [1])	EC50 (human µOR [2])	µOR % stim. (human µOR [2])	ED50 (mice [3])	EC50 (human δOR [4])	Emax (human δOR [4])	Ki (human δOR [5])	EC50 (human µOR [6])	Emax (human µOR [6])	Ki (human µOR [7])	Ki ratio δOR/µOR (human µOR [7])	Ki ratio κOR/µOR (human µOR [7])	EC50 (human δOR [8])	δOR % stim. (human δOR [8])	EC50 (human κOR [9])	κOR % stim. (human κOR [9])	Ki (human κOR [10])	ED50 (95% CL) (mice [11])	also measured
CN1CC[C@]23c4c5ccc(O)c4O[C@H]2[C@@H](O)C=C[C@H]3[C@H]1C5 [Morphine (1), Morphine, reference compound]	caused a significant deficit in rotarod performance	–	–	–	–	–	–	–	–	–	–	–	–	–	–	–	–	–	–
CO[C@@]12CCC(=O)[C@]3(C)Oc4c(O)ccc5c4[C@@]31CCN(CCc1ccccc1)[C@@H]2C5 [Compound 4a, 4,5α-Epoxy-3-hydroxy-14-methoxy-5-methyl-N-phenethylmorphinan-6-one]	lack of the mixed µ/δOR agonists 3a and 4a to induce motor dysfunction	1.86 ± 0.84 nM	102 ± 13%	0.024 mg/kg	0.55 ± 0.16 nM	96 ± 4%	1.45 ± 0.31 nM	0.15 ± 0.07 nM	98 ± 12%	0.24 ± 0.03 nM	6.0	147	9.54 ± 2.33 nM	103 ± 2%	334 ± 114 nM	51.3 ± 10.4%	35.3 ± 5.5 nM	–	melting point: 179 to 180 °C; fold higher δOR agonist potency vs. N-methyl counterpart (human δOR [8]): 4 fold; fold decrease in κOR affinity vs. N-methyl parent (human κOR [10]): ca. 3 fold
CO[C@@]12CCC(=O)[C@@H]3Oc4c(O)ccc5c4[C@@]31CCN(C)[C@@H]2C5 [14-OMO (3), 14-O-methyloxymorphone, reference compound]	–	1.21 ± 0.48 nM	95 ± 5%	0.014 mg/kg	5.42 ± 0.93 nM	98 ± 3%	9.08 ± 0.31 nM	0.19 ± 0.14 nM	90 ± 8%	0.27 ± 0.09 nM	34	38	38.5 ± 6.9 nM	102 ± 4%	135 ± 29 nM	65.9 ± 6.5%	10.3 ± 1.8 nM	–	–
CN1CC[C@]23c4c5ccc(O)c4O[C@H]2C(=O)CC[C@@]3(O)[C@H]1C5 [Oxymorphone (2), oxymorphone, reference compound]	caused a significant deficit in rotarod performance	–	–	–	–	–	–	–	–	–	–	–	–	–	–	–	–	0.35 (0.16–0.77)^b mg/kg	–
CO[C@@]12CCC(=O)[C@]3(C)Oc4c(O)ccc5c4[C@@]31CCN(C)[C@@H]2C5 [14-MM (4), 14-methoxymetopon, reference compound]	–	2.66 ± 0.58 nM	99 ± 5%	0.024 mg/kg	4.06 ± 0.89 nM	99 ± 8%	18.6 ± 0.98 nM	0.31 ± 0.07 nM	93 ± 5%	–	74	51	36.8 ± 12.4 nM	100 ± 9%	181 ± 9 nM	68.9 ± 9.2%	12.8 ± 1.5 nM	–	Ki (human µOR [7]; read-out: Ki µOR): 0.25 ± 0.04 nM
O=C1CC[C@@]2(O)[C@H]3Cc4ccc(O)c5c4[C@@]2(CCN3CCc2ccccc2)[C@H]1O5 [Compound 2a]	did not affect the evoked locomotor activity of mice	–	–	–	–	–	–	–	–	–	–	–	–	–	–	–	–	0.15 (0.058–0.40)^b mg/kg	–
CO[C@@]12CCC(=O)[C@@H]3Oc4c(O)ccc5c4[C@@]31CCN(CCc1ccccc1)[C@@H]2C5 [Compound 3a, 4,5α-Epoxy-3-hydroxy-14-methoxy-N-phenethylmorphinan-6-one]	lack of the mixed µ/δOR agonists 3a and 4a to induce motor dysfunction	1.26 ± 0.63 nM	98 ± 10%	0.014 mg/kg	0.6 ± 0.07 nM	93 ± 2%	1.81 ± 0.68 nM	0.078 ± 0.004 nM	88 ± 12%	0.19 ± 0.02 nM	9.5	83	9.34 ± 0.6 nM	107 ± 5%	144 ± 9 nM	35.4 ± 7.5 %	15.8 ± 8.8 nM	–	melting point: 180 to 182 °C; fold higher δOR agonist potency vs. N-methyl counterpart (human δOR [8]): 4 fold
Oc1ccc2c3c1O[C@H]1[C@@H](O)C=C[C@H]4[C@@H](C2)N(CCc2ccccc2)CC[C@@]341 [Compound 1a]	did not affect the evoked locomotor activity of mice	–	–	–	315 ± 110 nM	105 ± 8%	24.5 ± 8.7 nM	2.87 ± 0.91 nM	107 ± 5%	0.25 ± 0.09 nM	98	374	–	–	–	–	93.5 ± 2.9 nM	0.11 (0.027–0.40)^b mg/kg	fold more effective than morphine (antinociception) (mice [12]): 22 fold; κOR % stim. (human κOR [13]): 19 ± 2^b*** %; δOR % stim. (human δOR [14]): 138 ± 17^b %; fold enhanced µOR agonist potency vs. N-methyl parent (human µOR [6]): 4- to 5 fold; fold increase in µOR agonist potency vs. N-methyl parent (human µOR [15]): 2- to 3 fold; µOR % stim. (human µOR [15]): 113 ± 8^b %; fold increased affinity at the human µOR vs. N-methyl parent (human µOR [7]): ca. 13 fold; fold higher antinociceptive potency vs. N-methyl parent (mice [11]; tail-flick test): 28 fold
